In brackets after ≈: the same amount, converted by molar mass.
Columns and labels:
Format in all cases: functional
Bacillus subtilis = assay: Antimicrobial activity against Bacillus subtilis
Staphylococcus aureus = assay: Antimicrobial activity against Staphylococcus aureus
Enterococcus faecalis = assay: Antimicrobial activity against Enterococcus faecalis
Proteus sp. = assay: Antimicrobial activity against Proteus sp.; conditions: Proteus sp. (in: enterobacteria)
Escherichia coli = assay: Antimicrobial activity against Escherichia coli

Compound: C=C(C)[C@H]1COc2c(C)cc3oc4c(C[C@H](OC=O)C(C)(C)O)ccc(O)c4c(=O)c3c2[C@@H]1O [VARIXANTHONE]
- MIC (Bacillus subtilis): 12.5 µg/mL (≈ 26.7 µM)
- MIC (Staphylococcus aureus): 12.5 µg/mL (≈ 26.7 µM)
- MIC (Enterococcus faecalis): 50 µg/mL (≈ 107 µM)
- MIC (Proteus sp.): 12.5 µg/mL (≈ 26.7 µM)
- MIC (Escherichia coli): 12.5 µg/mL (≈ 26.7 µM)

Reference: ChEMBL document CHEMBL1148105, “Bioactive metabolites from a marine-derived strain of the fungus Emericella variecolor” (2002)
